Structures can show the parent of a compound that is named as a salt. Where two headings read alike, the source gives them in different places.
Legend:
β2AR-T4L = biological target: T1, β2AR-T4L (Homo sapiens, UniProt P07550, DEL231-262, form not given); assay: [3H]-DHA saturation binding on β2AR-T4L reconstituted in HDL particles; conditions: read-out: [3H]-DHA saturation binding Kd ± S.E.
T1 construct: The β2AR and β2AR-T4L (both truncated at position 365) purified as previously described (Rosenbaum et al. 2007); fused on or other part: T4 lysozyme (in the cited construct residues 2-161, C54T/C97A) inserted in place of the third intracellular loop as a crystallisation aid
Method: (§1) The effect of Nb80 and Gs on the receptors affinity for agonists was compared in competition binding experiments. The β2AR and β2AR-[…] (both […]) purified as previously described (Rosenbaum et al. 2007; […] GTPγS was used at 10 μM. […] Bound ^3H-DHA was separated from unbound on a Brandel harvester by passing over a Whatman GF/B filter (presoaked in TBS with 0.3% polyethylenimine) and washed in cold TBS. Radioligand binding was measured in a Beckman LS6000 scintillation counter. Ligand binding affinity (Kd) of DHA was determined from saturation binding curves using GraphPad Prism software.

β2AR [1] = biological target: T2, β2AR (Homo sapiens, UniProt P07550); assay: [3H]-DHA saturation binding on β2AR reconstituted in HDL particles; set-up: recombinant β2AR truncated at Gly365 (β2AR-365); made in house; host or cells: Sf9 insect cells (membranes); conditions: read-out: [3H]-DHA saturation binding Kd ± S.E.
Method: as §1

β2AR [2] = biological target: T2, β2AR; assay: Competition radioligand binding on commercial insect cell membranes with full-length human β2AR, Nb80 versus irrelevant Nb
[3] = 500 nM Nb80 or irrelevant Nb, 2 nM 3H-DHA radioligand

| Molecule | Potency shift (ratio of IC50 with irrelevant Nb to IC50 with Nb80) (β2AR [2]; [3]) | further results |
| --- | --- | --- |
| CCCc1ccccc1OCC(O)CNC(C)C (stereo not shown) [[^3H]-DNA, [^3H]-dihydroalprenolol] |  | Kd (β2AR-T4L): 0.42 ± 0.01 nM; Kd (β2AR [1]): 0.55 ± 0.09 nM |
| CC(Cc1ccc(O)cc1)NCC(O)c1cc(O)cc(O)c1 (stereo not shown) [fenoterol, fenoterol hydrobromide] | 3.7 |  |
| CC(NCCc1ccc(O)cc1)C(O)c1ccc(O)cc1 (stereo not shown) [ritodrine, ritodrine hydrochloride] | 2.7 |  |
| CC(CCc1ccc(O)cc1)NCCc1ccc(O)c(O)c1 (stereo not shown) [dobutamine, dobutamine hydrochloride] | 2.3 |  |
| metaproterenol hemisulfate salt |  | Potency shift (ratio of IC50 with irrelevant Nb to IC50 with Nb80) (β2AR [2]): 2.9 |
| CCC(NC(C)C)C(O)c1ccc(O)c2[nH]c(=O)ccc12 (stereo not shown) [procaterol, procaterol hydrochloride] | 2.3 |  |

— patent US20130137856A1, “PROTEIN BINDING DOMAINS STABILIZING FUNCTIONAL CONFORMATIONAL STATES OF GPCRS AND USES THEREOF” (priority 2010, published 2013)
